{"source": "patent US8389526B2", "about": "“3-heteroarylmethyl-imidazo[1,2-b]pyridazin-6-yl derivatives” (Novartis AG, priority 2009, dated 2013)", "key": {"[1]": {"target": "T1, c-Met receptor tyrosine kinase, GST-c-Met(969-1390) (Homo sapiens, UniProt P08581)", "T1 construct": "made in house", "T1 sequence (P08581 969-1390)": "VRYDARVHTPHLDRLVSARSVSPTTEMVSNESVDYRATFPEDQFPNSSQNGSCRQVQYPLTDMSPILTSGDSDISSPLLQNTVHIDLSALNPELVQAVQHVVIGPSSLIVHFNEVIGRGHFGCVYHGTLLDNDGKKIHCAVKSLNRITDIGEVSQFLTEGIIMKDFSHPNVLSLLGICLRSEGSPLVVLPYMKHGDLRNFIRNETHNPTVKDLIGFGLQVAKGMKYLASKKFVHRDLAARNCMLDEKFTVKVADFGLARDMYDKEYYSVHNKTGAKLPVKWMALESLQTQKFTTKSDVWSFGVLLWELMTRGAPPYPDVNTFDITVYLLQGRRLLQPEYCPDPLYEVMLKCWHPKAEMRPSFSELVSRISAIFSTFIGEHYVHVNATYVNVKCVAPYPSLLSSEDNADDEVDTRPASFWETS", "assay": "EPK c-Met profiling assay (LanthaScreen TR-FRET kinase assay)", "type": "biochemical", "conditions": "2 μM ATP, 0.3 nM enzyme, 60 minutes at room temperature", "outline": "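Recombinant GST-c-Met(969-1390) cytoplasmic domain, 0.3 nM, phosphorylating 50 nM Fluorescein-PolyEAY with 2 μM ATP, 10 mM MgCl2, 3 mM MnCl2, 60 min at room temperature. EDTA-stopped; phosphoproduct detected by TR-FRET with Tb-PY20 antibody, end-point read. Final compound 0.003-10 μM over 8 concentrations.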"}, "[2]": {"tested_on": "MET-amplified gastric cancer cell line GTL-16", "assay": "GTL-16 proliferation assay (MTS)", "type": "cell-based", "conditions": "Homo sapiens, GTL-16 cells, 72 h incubation", "outline": "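GTL-16 cells were seeded at 3000/well in DMEM with 10% FCS. After 24 h they were treated in triplicate with a 10-point, 3-fold dilution series ([…]; DMSO-only control) for 72 h. Viable cells were measured by MTS, with OD 490 nm read after 30 min.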"}, "c-Met": {"target": "T2, c-Met (Homo sapiens, UniProt P08581)", "T2 construct": "adapted to measure the phosphorylation of endogenous cellular proteins in cell lysates; endogenous in cells; host or cells: GTL-16", "T2 sequence (P08581 25-1390)": "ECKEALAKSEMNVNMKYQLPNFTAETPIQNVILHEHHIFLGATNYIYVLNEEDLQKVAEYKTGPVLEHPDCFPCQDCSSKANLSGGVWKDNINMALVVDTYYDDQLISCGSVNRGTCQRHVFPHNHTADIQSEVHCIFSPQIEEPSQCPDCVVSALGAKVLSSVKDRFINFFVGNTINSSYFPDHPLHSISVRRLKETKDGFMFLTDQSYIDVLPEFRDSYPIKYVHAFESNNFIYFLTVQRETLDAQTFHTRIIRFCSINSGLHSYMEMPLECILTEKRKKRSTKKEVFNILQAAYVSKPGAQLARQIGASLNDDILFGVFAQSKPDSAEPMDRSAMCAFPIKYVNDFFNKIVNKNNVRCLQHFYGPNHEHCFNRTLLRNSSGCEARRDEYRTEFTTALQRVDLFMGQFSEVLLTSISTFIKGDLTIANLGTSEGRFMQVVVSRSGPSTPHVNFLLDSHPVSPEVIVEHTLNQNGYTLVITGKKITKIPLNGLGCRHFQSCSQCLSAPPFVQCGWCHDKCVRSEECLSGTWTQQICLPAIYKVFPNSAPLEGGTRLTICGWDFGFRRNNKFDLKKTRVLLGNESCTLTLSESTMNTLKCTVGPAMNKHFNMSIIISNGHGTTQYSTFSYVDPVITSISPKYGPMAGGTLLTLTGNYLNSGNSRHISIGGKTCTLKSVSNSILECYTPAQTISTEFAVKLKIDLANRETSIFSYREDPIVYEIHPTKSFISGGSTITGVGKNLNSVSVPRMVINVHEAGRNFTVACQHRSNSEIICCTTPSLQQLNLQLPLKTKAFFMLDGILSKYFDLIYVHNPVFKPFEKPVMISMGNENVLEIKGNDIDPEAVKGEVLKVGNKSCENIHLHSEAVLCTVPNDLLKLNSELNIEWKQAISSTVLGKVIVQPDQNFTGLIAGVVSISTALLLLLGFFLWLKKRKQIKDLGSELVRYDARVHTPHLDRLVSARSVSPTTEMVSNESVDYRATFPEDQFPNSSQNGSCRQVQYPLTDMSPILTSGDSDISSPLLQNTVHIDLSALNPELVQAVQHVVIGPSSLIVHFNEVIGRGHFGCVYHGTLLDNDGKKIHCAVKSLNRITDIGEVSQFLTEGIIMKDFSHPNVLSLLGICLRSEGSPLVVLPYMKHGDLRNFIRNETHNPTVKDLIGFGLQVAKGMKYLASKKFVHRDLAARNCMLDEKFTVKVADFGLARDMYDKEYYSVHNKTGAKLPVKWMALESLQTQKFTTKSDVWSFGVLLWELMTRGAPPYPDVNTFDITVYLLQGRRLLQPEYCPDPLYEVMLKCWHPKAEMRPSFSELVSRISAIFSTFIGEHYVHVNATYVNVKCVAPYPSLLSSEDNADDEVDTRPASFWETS", "assay": "GTL-16 c-Met autophosphorylation measured by AlphaScreen detection", "type": "cell-based", "conditions": "GTL-16 cells, 1 h incubation, AlphaScreen p-c-Met; read-out: GTL-16 IC50 c-Met phosphorylation", "outline": "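GTL-16 MET-amplified gastric cancer cells, serum-free DMEM with 0.1% BSA, exposed to 8-point compound dilutions for 1 h at 37° C (0.11% DMSO final). Lysates probed for phospho-c-Met by AlphaScreen using anti-c-Met antibody, biotinylated PY20 phosphotyrosine antibody, Protein A acceptor and streptavidin donor beads.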"}}, "data": [{"smiles": "O=CN1CCN(c2ccc3ncc(Cc4c(F)cc5ncccc5c4F)n3n2)CC1", "note": "[Example 35, 4-[3-(5,7-Difluoro-quinolin-6-ylmethyl)-imidazo[1,2-b]pyridazin-6-yl]-piperazine-1-carbaldehyde]", "values": [{"measurement": "IC50", "setting": "[1]", "result": 9.9, "unit": "nM"}, {"measurement": "IC50", "setting": "[2]", "result": 45, "unit": "nM"}, {"measurement": "IC50", "setting": "c-Met", "result": 8, "unit": "nM"}]}, {"smiles": "COC(=O)N1CCN(c2ccc3ncc(Cc4c(F)cc5ncccc5c4F)n3n2)CC1", "note": "[Example 36, 4-[3-(5,7-Difluoro-quinolin-6-ylmethyl)-imidazo[1,2-b]pyridazin-6-yl]-piperazine-1-carboxylic acid methyl ester]", "values": [{"measurement": "IC50", "setting": "[1]", "result": 11, "unit": "nM"}, {"measurement": "IC50", "setting": "[2]", "result": 25, "unit": "nM"}, {"measurement": "IC50", "setting": "c-Met", "result": "< 3", "unit": "nM"}]}, {"smiles": "O=C1CN(c2ccc3ncc(Cc4ccc5ncccc5c4F)n3n2)CCN1", "note": "[Example 44, 4-[3-(5-Fluoro-quinolin-6-ylmethyl)-imidazo[1,2-b]pyridazin-6-yl]-piperazin-2-one]", "values": [{"measurement": "IC50", "setting": "[1]", "result": 14, "unit": "nM"}, {"measurement": "IC50", "setting": "[2]", "result": 133, "unit": "nM"}, {"measurement": "IC50", "setting": "c-Met", "result": 31, "unit": "nM"}]}, {"smiles": "C[C@@H](c1c(F)cc2c(cnn2C)c1F)c1cnc2ccc(N3CCN(C)C(=O)C3)nn12", "note": "[Example 50, 4-{3-[(S)-1-(4,6-Difluoro-1-methyl-1H-indazol-5-yl)-ethyl]-imidazo[1,2-b]pyridazin-6-yl}-1-methyl-piperazin-2-one]", "values": [{"measurement": "IC50", "setting": "[1]", "result": 8.3, "unit": "nM"}, {"measurement": "IC50", "setting": "[2]", "result": 11, "unit": "nM"}, {"measurement": "IC50", "setting": "c-Met", "result": 2.7, "unit": "nM"}]}, {"smiles": "C[C@@H](c1c(F)cc2c(cnn2C)c1F)c1cnc2ccc(N3CCNC(=O)C3)nn12", "note": "[Example 52, 4-{3-[(S)-1-(4,6-Difluoro-1-methyl-1H-indazol-5-yl)-ethyl]-imidazo[1,2-b]pyridazin-6-yl}-piperazin-2-one]", "values": [{"measurement": "IC50", "setting": "[1]", "result": "< 3", "unit": "nM"}, {"measurement": "IC50", "setting": "[2]", "result": 11, "unit": "nM"}, {"measurement": "IC50", "setting": "c-Met", "result": 2.2, "unit": "nM"}]}, {"smiles": "CC(=O)N1CCN(c2ccc3ncc([C@@H](C)c4c(F)cc5c(cnn5C)c4F)n3n2)CC1", "note": "[Example 53, 1-(4-{3-[(S)-1-(4,6-Difluoro-1-methyl-1H-indazol-5-yl)-ethyl]-imidazo[1,2-b]pyridazin-6-yl}-piperazin-1-yl)-ethanone]", "values": [{"measurement": "IC50", "setting": "[1]", "result": 5.2, "unit": "nM"}, {"measurement": "IC50", "setting": "[2]", "result": 22, "unit": "nM"}, {"measurement": "IC50", "setting": "c-Met", "result": 4.4, "unit": "nM"}]}, {"smiles": "Cn1ncc2c(F)c(Cc3cnc4ccc(N5CCNC(=O)C5)nn34)c(F)cc21", "note": "[Example 54, 4-[3-(4,6-Difluoro-1-methyl-1H-indazol-5-ylmethyl)-imidazo[1,2-b]pyridazin-6-yl]-piperazin-2-one]", "values": [{"measurement": "IC50", "setting": "[1]", "result": 20, "unit": "nM"}, {"measurement": "IC50", "setting": "[2]", "result": 36, "unit": "nM"}, {"measurement": "IC50", "setting": "c-Met", "result": "< 3", "unit": "nM"}]}, {"smiles": "C[C@@H](c1c(F)cc2ncccc2c1F)c1cnc2ccc(N3CCNC(=O)[C@H]3C)nn12", "note": "[Example 59, (R)-4-{3-[(S)-1-(5,7-Difluoro-quinolin-6-yl)-ethyl]-imidazo[1,2-b]pyridazin-6-yl}-3-methyl-piperazin-2-one]", "values": [{"measurement": "IC50", "setting": "[1]", "result": 3, "unit": "nM"}, {"measurement": "IC50", "setting": "[2]", "result": 5.6, "unit": "nM"}, {"measurement": "IC50", "setting": "c-Met", "result": 3.6, "unit": "nM"}]}, {"smiles": "C[C@@H](c1c(F)cc2ncccc2c1F)c1cnc2ccc(N3CCNC(=O)[C@@H]3C)nn12", "note": "[Example 60, (S)-4-{3-[(S)-1-(5,7-Difluoro-quinolin-6-yl)-ethyl]-imidazo[1,2-b]pyridazin-6-yl}-3-methyl-piperazin-2-one]", "values": [{"measurement": "IC50", "setting": "[1]", "result": 2.6, "unit": "nM"}, {"measurement": "IC50", "setting": "[2]", "result": 4.8, "unit": "nM"}, {"measurement": "IC50", "setting": "c-Met", "result": 2.3, "unit": "nM"}]}]}
